In brackets after ≈: the same amount, converted by molar mass.
Tests used:
[1] = system: Klebsiella pneumoniae ATCC 13883; assay: Antimicrobial activity, MIC, modified microbroth dilution; format: cell-based; details: ATCC13883, K. pneumoniae (13883), 18 hours incubation, read-out: MIC (expressed as MIC50) K. Pnuemnoiae
Description: (§1) The compounds were screened for antimicrobial activity against a number of ATCC bacterial strains. Minimum Inhibitory Concentrations (MIC) of each of the compounds were determined using standard CLSI procedures modified by Hancock protocol against E. Coli ATCC 25922, Staphylococcus aureus ATCC 27660, Enterococcus faecalis ATCC 29212, Pseudomonas aeruginosa ATCC 10145, and Klebsiella pneumoniae ATCC 13883.
(§2) This procedure is a modification of the standard microbroth dilution assay recommended by the National Committee for Clinical Laboratory Standards (NCCLS) which has been developed for determining in vitro antimicrobial activities of cationic agents (Steinberg et al., Antimicrob. Agents Chemother., 1997, 41, 1738; and Yan et al., Antimicrob. Agents Chemother., 2001, 45, 1558). The modifications were made to minimize loss of the antimicrobial agent due to adsorption onto glass or plastic surfaces and by precipitation at high concentrations.
(§3) Three mL of Mueller-Hinton II Broth (cation-adjusted) was inoculated with 5 μL of frozen bacterial stock and incubated at 37° C. on a shaker platform (at 250 rpm) overnight. Compound stock solutions were prepared in DMSO and serial two-fold dilutions of compound were made in 0.01% acetic acid, 0.2% bovine serum albumin directly in the wells of the polypropylene plate at 10 μL/well. […] All samples were performed in duplicate. The overnight bacteria suspension was diluted to approximately 10^6 cfu/mL and inoculated into a polypropylene (Costar) 96-well round bottom plate (90 μL volumes). One set of control wells included broth-only samples with dilution buffer for testing sterility and providing blank values for the assay readings. Vehicle-control wells containing the bacterial suspension with DMSO (no compound) were also included. Following the overnight incubation (18 hours), cell growth was assessed by observing the presence of “acceptable growth”, defined by NCCLS as a ≧2 mm button or definite turbidity.
(§4) Actual results from a representative MIC assay are shown below in Table 1. Data is expressed as MIC50 in μg/mL. The bacterial isolates were as follows: E. coli (25922); S. aureus (27660); E. faecalis (29212); P. aeruginosa (10145); and K. pneumoniae (13883).

[2] = system: Staphylococcus aureus ATCC 27660; assay: as above; format: cell-based; details: ATCC27660, S. aureus (27660), 18 hours incubation, read-out: MIC (expressed as MIC50) S. aureus
Description: as §1, §2, §3, §4

[3] = system: Enterococcus faecalis ATCC 29212; assay: as above; format: cell-based; details: ATCC29212, E. faecalis (29212), 18 hours incubation, read-out: MIC (expressed as MIC50) E. faecalis
Description: as §1, §2, §3, §4

E. Coli ATCC 25922 = assay: as above; format: cell-based; details: Escherichia coli, ATCC25922; E. coli (25922); 18 hours incubation; read-out: MIC (expressed as MIC50) E. coli
Description: as §1, §2, §3, §4

[4] = system: Pseudomonas aeruginosa ATCC 10145; assay: as above; format: cell-based; details: ATCC10145, P. aeruginosa (10145), 18 hours incubation, read-out: MIC (expressed as MIC50) P. Aeruginosa
Description: as §1, §2, §3, §4

[5] = Cytotoxicity, colorimetric tetrazolium assay; format: cell-based; details: one hour with compound in serum-free media
Description: Cytotoxicity of the compounds was evaluated in a colorimetric assay using a transformed human liver cell line (HepG2, HB-8065) and an embryonic mouse cell line (NIH/3T3 cells, CRL-1658). This assay measures the bioreduction of a novel tetrazolium compound to a soluble formazan product by viable cells. HepG2 cells were seeded in 96 well plates at 2×10^4 cells/well in MEM medium with 10% fetal bovine serum (FBS) for 24 hours prior to use. NIH/3T3 cells were seeded in 96 well plates at 2×10^4 cells/well in DMEM medium with 10% bovine calf serum (BCS) 24 hours prior to use. Cell monolayers were rinsed in serum-free media and incubated for one hour with the compound in serum-free media. After incubation, the media was replaced with serum supplemented media and live cells were measured using the Cell Titer 96 Aqueous […] (Promega, Madison, Wis.). EC50 values were determined using a four parameter logistic equation: Y=Bottom+(Top−Bottom)/(1+10̂((Log EC50−X)*HillSlope)). Actual results from a representative cytotoxicity assay are shown below in Table 2. Data is expressed as EC50 in μg/mL.

MRSA ATCC 33591 = assay: Anti-biofilm activity, minimum biofilm eradication concentration (MBEC); format: cell-based, Staphylococcus aureus; details: MRSA ATCC 33591 biofilm on filter paper disks; 24 hours challenge
Description: The in vitro activity against biofilm was carried out by following the protocol for biofilm development and challenge using filter paper disks and 24-well plates. On day one, a tryptic soy agar plate (TSA) was streaked for MRSA isolation. On the second day a single colony of MRSA was grown in about 5 mL of tryptic soy broth (TSB). Filter papers were punched and autoclaved in 96-well plate. On the third day, a single filter paper disk was placed in each well of 24-well plate. The plate was inoculated with 300 μL/well of 0.01 adjusted OD600 bacteria inoculum in TSB supplemented with 1% glucose and 1.6% NaCl. The cells were allowed to grow for 48 hours on a shaker at 37° C. On day five, the challenge plate(s) were made in a 24-well plate(s), using eppendorf tubes to make dilutions and aliquoted into designated wells. The wash plates were filled in each well of a 24-well plate with 500 μL 0.9% saline. The disks were removed with forceps from the growth plate to the wash plate to challenge plate, flaming in between or where needed. Once disks are in challenge plate, incubated for 24 hours on shaker at 37° C. […] On day seven, the colonies were counted.
The actual MBEC of Compound 113 against MRSA ATCC 33591 was determined to be 32 μg/mL.

[6] = mouse, NIH/3T3 cells (CRL-1658)

| SMILES | MIC50 [1] [µg/mL] | MIC50 [2] [µg/mL] | MIC50 [3] [µg/mL] | MIC50 (E. Coli ATCC 25922) [µg/mL] | MIC50 [4] [µg/mL] | MIC [1] [µg/mL] | MIC [2] [µg/mL] | MIC [3] [µg/mL] | MIC (E. Coli ATCC 25922) [µg/mL] | MIC [4] [µg/mL] | EC50 at 1 h ([5]; human, HepG2 cells (HB-8065)) [µg/mL] | EC50 at 1 h [5, 6] [µg/mL] | MBEC (MRSA ATCC 33591) [µg/mL] |
| --- | --- | --- | --- | --- | --- | --- | --- | --- | --- | --- | --- | --- | --- |
| N=C(N)NCCCC(=O)Nc1cc(C(F)(F)F)cc(NC(=O)Nc2ccc3nc(-c4ccc(NCCCN)cc4)sc3c2)c1SCCN [Compound 110, N-[2-(2-aminoethylsulfanyl)-3-[[2-[4-(3-aminopropylamino)phenyl]-1,3-benzothiazol-6-yl]carbamoylamino]-5-(trifluoromethyl)phenyl]-4-guanidino-butanamide] | 3.13 (≈ 4.45 µM) | 0.098 (≈ 0.139 µM) | 1.56 (≈ 2.22 µM) | 1.56 (≈ 2.22 µM) | 6.25 (≈ 8.89 µM) | – | – | – | – | – | 49.9 (≈ 71 µM) | 50.7 (≈ 72.1 µM) | – |
| N=C(N)NCCCCC(=O)Nc1cc(C(F)(F)F)cc(NC(=O)Nc2ccc3nc(NC(=O)Nc4cc(C(F)(F)F)cc(NC(=O)CCCCNC(=N)N)c4SCCN)sc3c2)c1SCCN [Compound 111, N-[2-(2-aminoethylsulfanyl)-3-[[2-[[2-(2-aminoethylsulfanyl)-3-(5-guanidinopentanoylamino)-5-(trifluoromethyl)phenyl]carbamoylamino]-1,3-benzothiazol-6-yl]carbamoylamino]-5-(trifluoromethyl)phenyl]-5-guanidino-pentanamide] | 3.13 (≈ 3.12 µM) | 0.195 (≈ 0.195 µM) | 3.13 (≈ 3.12 µM) | 3.13 (≈ 3.12 µM) | 12.5 (≈ 12.5 µM) | – | – | – | – | – | 54 (≈ 53.9 µM) | 50.1 (≈ 50 µM) | – |
| N=C(N)NCCCCC(=O)Nc1cc(C(F)(F)F)cc(NC(=O)Nc2ccc3nc(NC(=O)Nc4cc(C(F)(F)F)cc(NC(=O)CCCCNC(=N)N)c4O[C@@H]4CCNC4)sc3c2)c1O[C@@H]1CCNC1 [Compound 112, 5-guanidino-N-[3-[[2-[[3-(5-guanidinopentanoylamino)-2-[(3R)-pyrrolidin-3-yl]oxy-5-(trifluoromethyl)phenyl]carbamoylamino]-1,3-benzothiazol-6-yl]carbamoylamino]-2-[(3R)-pyrrolidin-3-yl]oxy-5-(trifluoromethyl)phenyl]pentanamide] | 3.13 (≈ 3.06 µM) | 0.098 (≈ 0.0959 µM) | 1.56 (≈ 1.53 µM) | 1.56 (≈ 1.53 µM) | 25 (≈ 24.5 µM) | – | – | – | – | – | 105 (≈ 103 µM) | 52.5 (≈ 51.4 µM) | – |
| NCCCc1cc(NC(=O)Nc2cc(C(F)(F)F)c(SCCN)cc2SCCN)ccc1Oc1ccc(NCCN)c(C(F)(F)F)c1 [Compound 113, 1-[4-[4-(2-aminoethylamino)-3-(trifluoromethyl)phenoxy]-3-(3-aminopropyl)phenyl]-3-[2,4-bis(2-aminoethylsulfanyl)-5-(trifluoromethyl)phenyl]urea] | 3.13 (≈ 4.43 µM) | 1.56 (≈ 2.21 µM) | 0.78 (≈ 1.11 µM) | 3.13 (≈ 4.43 µM) | 3.13 (≈ 4.43 µM) | – | – | – | – | – | 191 (≈ 271 µM) | 142 (≈ 201 µM) | 32 |

Further lines, with some results ahead:

| MIC50 [1] [µg/mL] | MIC50 [2] [µg/mL] | MIC50 [3] [µg/mL] | MIC50 (E. Coli ATCC 25922) [µg/mL] | MIC50 [4] [µg/mL] | MIC [1] [µg/mL] | MIC [2] [µg/mL] | MIC [3] [µg/mL] | MIC (E. Coli ATCC 25922) [µg/mL] | MIC [4] [µg/mL] | SMILES | EC50 at 1 h ([5]; human, HepG2 cells (HB-8065)) [µg/mL] | EC50 at 1 h [5, 6] [µg/mL] | MBEC (MRSA ATCC 33591) [µg/mL] |
| --- | --- | --- | --- | --- | --- | --- | --- | --- | --- | --- | --- | --- | --- |
| 12.5 (≈ 19.8 µM) | 1.56 (≈ 2.47 µM) | 1.56 (≈ 2.47 µM) | 6.25 (≈ 9.91 µM) | 3.13 (≈ 4.96 µM) | – | – | – | – | – | NCCCc1cc(NC(=O)Nc2ccc(SCCN)c(C(F)(F)F)c2)ccc1Oc1ccc(NCCN)c(C(F)(F)F)c1 [Compound 114, 1-[4-[4-(2-aminoethylamino)-3-(trifluoromethyl)phenoxy]-3-(3-aminopropyl)phenyl]-3-[4-(2-aminoethylsulfanyl)-3-(trifluoromethyl)phenyl]urea] | 238 (≈ 377 µM) | 160 (≈ 254 µM) | – |
| – | – | – | – | – | 25 (≈ 69.6 µM) | 6.25 (≈ 17.4 µM) | 25 (≈ 69.6 µM) | 25 (≈ 69.6 µM) | 7.5 (≈ 20.9 µM) | NCC#Cc1cc(-n2ccc3cc([N+](=O)[O-])ccc32)cc(C(F)(F)F)c1 [Compound 115] | 74.3 (≈ 207 µM) | 43.3 (≈ 121 µM) | – |

Reference: US20140171438A1, “Hybrid Compounds And Methods Of Making And Using The Same” (CELLCEUTIX CORPORATION, priority 2012, published 2014)
